Data: patent US20190316085A1, “Methods Of T-Lymphocyte Expansion” (Cambridge Enterprise Limited, priority 2015, published 2019)

Assays:
CD8^+ T-lymphocytes = experiment: IFN-γ and IL-2 protein in media; type: cell-based, mouse; conditions: 0.5 mM, 24 h
Protocol: Total splenocytes were activated for 48 h with 1000 nM SIINFEKL and then expanded for a further 4 days in the presence of IL-2 followed by treatment 0.5 mM of S-2HG-octyl R-2HG-octyl ester ester for 24 h. OT-I CD8^+ T-lymphocytes were incubated with target and control cells for 4 hours. n=3 mice per condition. […] Cells were activated for 48 h with αCD3+αCD28 antibodies and then expanded for a further 4 days in the presence of IL-2 followed by treatment with the indicated concentration of S-2HG-octyl ester or R-2HG-octyl ester for 24 hours. n≥16 mice.
CD8^+ T-cells were expanded for 4 days and then treated for 16 h with S-2HG octyl ester or R-2HG octyl ester. Glucose and lactate levels in culture medium were measured with a Dade-Behring Dimension RXL analyser. Changes in metabolite concentrations relative to fresh media were normalized to viable cell counts. VEGF, IL-2 and IFN-γ protein levels in media were determined using the following kits from MesoScale Discovery: K150BMC-2 for VEGF, K15048D-2 for IFN-γ and K152QQD-2 for IL-2. Values were normalized to viable cell counts.

OT-I CD8^+ T-lymphocytes = experiment: Survival in the absence of IL-2 supplementation; type: cell-based, mouse; conditions: 0.5 mM
Protocol: OT-I CD8^+ T-lymphocytes were incubated with target and control cells for 4 hours. n=3 mice per condition. […]
Cells were counted on an ADAM-MC automated cell counter (NanoEnTek) and viability was assessed by the exclusion of propidium iodide. Cell volume was determined using a Z2 Coulter counter (Beckman Coulter).

Structure (SMILES)	production of interleukin-2 (IL-2) (CD8^+ T-lymphocytes)	secretion of interferon-γ (IFN-γ) (CD8^+ T-lymphocytes)	ability to survive in the absence of IL-2 supplementation (OT-I CD8^+ T-lymphocytes)
CCCCCCCCOC(=O)[C@@H](O)CCC(=O)O [S-2HG-octyl ester, S-2HG octyl ester]	increased	decreased	elevated ability to survive
CCCCCCCCOC(=O)[C@H](O)CCC(=O)O [R-2HG-octyl ester]	increased	decreased	elevated ability to survive
